Results reported in patent US5550128A, “Enantiomers of gamma methylene 10-deaza aminopterin and process for preparing the same” (priority 1994, dated 1996).

Columns and labels:
[1] = target: T1, Recombinant Human Dihydrofolate Reductase (Homo sapiens, UniProt P00374); assay: Inhibition of recombinant human dihydrofolate reductase, spectrophotometric enzyme assay; assay type: biochemical
T1 sequence (P00374 1-187): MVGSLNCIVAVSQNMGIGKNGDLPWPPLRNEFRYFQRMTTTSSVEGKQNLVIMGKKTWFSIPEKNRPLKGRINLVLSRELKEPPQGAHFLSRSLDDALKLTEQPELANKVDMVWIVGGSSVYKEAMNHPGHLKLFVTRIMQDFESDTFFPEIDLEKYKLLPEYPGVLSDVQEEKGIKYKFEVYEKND
Method: Enzyme assay was performed spectrophotometrically in a solution containin
50 μM dihydrofolate, 80 μM NADPH, 0.05 M Tris HCl. 0.01 M
2mercaptoethanol and 0.001 M EDTA at pH 7.4 at 30°. The reaction
Pure human recombinant enzyme was used.

[2] = system: H35 hepatoma cells; assay: Growth inhibition of H35 hepatoma cells in culture; assay type: cell-based
Method: (§1) Independent, further evidences to the identity of L-MDAM as the biologically active enantiomer of the racemic mixture of D,L-MDAM (previously described as MDAM; Ref, U.S. Pat. No. 4,996,207) was obtained by the following data. […] The cytotoxicity of L-MDAM versus D,L-MDAM was also compared. […] The l50 value for growth inhibition (Gl50) was 39 nM for D,L-MDAM. […] Taken together, these unexpected and novel results establish that the biologically active compound present in the racemic mixture of MDAM is the L-enantiomer described in claim number 1.

[3] = system: transport of radiolabeled folinic acid to H35 hepatoma cells; assay: Inhibition of transport of radiolabeled folinic acid to H35 hepatoma cells; assay type: cell-based
Method: as §1

[4] = system: MCF-7 (breast cancer); assay: Human Disease Oriented in vitro Antitumor Screen; assay type: cell-based; conditions: MCF7, MCF-7 (Table 5), read-out: Gl50 (the source's name)
From the text: (§2) It is also active against the adriamycin resistant MCF-7 human breast cancer cells (Gl50 -=74×10^-9).
(§3) Human Disease Oriented in vitro Antitumor Screen

[5] = system: SN-12C (renal cancer); assay: Human Disease Oriented in vitro Antitumor Screen; assay type: cell-based; conditions: SN12C, SN-12C (Table 5), read-out: Gl50 (the source's name)
From the text: as §2, §3

[6] = system: HCT-15 (colon cancer); assay: Human Disease Oriented in vitro Antitumor Screen; assay type: cell-based; conditions: HCT-15 (Table 5), read-out: Gl50 (the source's name)
From the text: as §2, §3

[7] = system: U-251 (CNS cancer); assay: Human Disease Oriented in vitro Antitumor Screen; assay type: cell-based; conditions: U-251 (Table 5), read-out: Gl50 (the source's name)
From the text: as §2, §3

[8] = system: MDA-MB-231/ATCC (breast cancer); assay: Human Disease Oriented in vitro Antitumor Screen; assay type: cell-based; conditions: MDA-MB-231/ATCC (Table 5), read-out: Gl50 (the source's name)
From the text: as §2, §3

[9] = system: NCI-H460 (non-small cell lung cancer); assay: Human Disease Oriented in vitro Antitumor Screen; assay type: cell-based; conditions: NCI-H460 (Table 5), read-out: Gl50 (the source's name)
From the text: as §2, §3

[10] = system: OVCAR-5 (ovarian cancer); assay: Human Disease Oriented in vitro Antitumor Screen; assay type: cell-based; conditions: OVCAR-5 (Table 5), read-out: Gl50 (the source's name)
From the text: as §2, §3

[11] = system: HOP-62 (non-small cell lung cancer); assay: Human Disease Oriented in vitro Antitumor Screen; assay type: cell-based; conditions: HOP-62 (Table 5), read-out: Gl50 (the source's name)
From the text: as §2, §3

[12] = system: MDA-N (breast cancer); assay: Human Disease Oriented in vitro Antitumor Screen; assay type: cell-based; conditions: MDA-N (Table 5), read-out: Gl50 (the source's name)
From the text: as §2, §3

[13] = system: ZIACC-62 (melanoma); assay: Human Disease Oriented in vitro Antitumor Screen; assay type: cell-based; conditions: ZIACC-62 (Table 5), read-out: Gl50 (the source's name)
From the text: as §2, §3

[14] = system: IGROVI (ovarian cancer); assay: Human Disease Oriented in vitro Antitumor Screen; assay type: cell-based; conditions: IGROVI (Table 5), read-out: Gl50 (the source's name)
From the text: as §2, §3

[15] = system: DU 145 (prostate cancer); assay: Human Disease Oriented in vitro Antitumor Screen; assay type: cell-based; conditions: DU 145 (Table 5), read-out: Gl50 (the source's name)
From the text: as §2, §3

[16] = system: M14 (melanoma); assay: Human Disease Oriented in vitro Antitumor Screen; assay type: cell-based; conditions: M14 (Table 5), read-out: Gl50 (the source's name)
From the text: as §2, §3

[17] = system: RPMI-8226 (leukemia); assay: Human Disease Oriented in vitro Antitumor Screen; assay type: cell-based; conditions: RPMI-8226 (Table 5), read-out: Gl50 (the source's name)
From the text: as §2, §3

[18] = system: TK-10 (renal cancer); assay: Human Disease Oriented in vitro Antitumor Screen; assay type: cell-based; conditions: TK-10 (Table 5), read-out: Gl50 (the source's name)
From the text: as §2, §3

[19] = system: human tumor cell lines in culture; assay: Human Tumor Disease Oriented in vitro screen, panel as a whole; assay type: cell-based; conditions: relative to methotrexate, or enantiomer comparison
Method: (§4) Further, by analogy to methotrexate (rheumatrex) L-MDAM should be useful in the treatment of autoimmune diseases such as rheumatoid arthritis and inflammatory diseases such as asthma.
(§5) A 48 h continuous drug exposure protocol was used combined with an SR13
(§6) protein assay to estimate cell growth or viability.

[20] = system: SF-295; assay: Human Disease Oriented in vitro Antitumor Screen; assay type: cell-based; conditions: SF-295 (Table 5), read-out: Gl50 (the source's name)
Method: as §4, §5, §6

[21] = system: ACHN (renal cancer); assay: Human Disease Oriented in vitro Antitumor Screen; assay type: cell-based; conditions: ACHN (Table 5), read-out: Gl50 (the source's name)
Method: as §4, §5, §6

[22] = system: CCRF-CEM (leukemia); assay: Human Disease Oriented in vitro Antitumor Screen; assay type: cell-based; conditions: CCRF-CEM (Table 5), read-out: Gl50 (the source's name)
Method: as §4, §5, §6

[23] = system: SR (leukemia); assay: Human Disease Oriented in vitro Antitumor Screen; assay type: cell-based; conditions: SR (Table 5), read-out: Gl50 (the source's name)
Method: as §4, §5, §6

[24] = system: 786-O (renal cancer); assay: Human Disease Oriented in vitro Antitumor Screen; assay type: cell-based; conditions: 786-0, 786-O (Table 5), read-out: Gl50 (the source's name)
Method: as §4, §5, §6

[25] = system: LOX IM VI (melanoma); assay: Human Disease Oriented in vitro Antitumor Screen; assay type: cell-based; conditions: LOX IMVI, LOX MI VI (Table 5), read-out: Gl50 (the source's name)
Method: as §4, §5, §6

[26] = system: SF-268; assay: Human Disease Oriented in vitro Antitumor Screen; assay type: cell-based; conditions: SF-268 (Table 5), read-out: Gl50 (the source's name)
Method: as §4, §5, §6

[27] = system: MOLT-4 (leukemia); assay: Human Disease Oriented in vitro Antitumor Screen; assay type: cell-based; conditions: MOLT-4 (Table 5), read-out: Gl50 (the source's name)
Method: as §4, §5, §6

[28] = system: SW-620 (colon cancer); assay: Human Disease Oriented in vitro Antitumor Screen; assay type: cell-based; conditions: SW-620 (Table 5), read-out: Gl50 (the source's name)
Method: as §4, §5, §6

[29] = system: HCT-116 (colon cancer); assay: Human Disease Oriented in vitro Antitumor Screen; assay type: cell-based; conditions: HCT-116 (Table 5), read-out: Gl50 (the source's name)
Method: as §4, §5, §6

[30] = system: HT-29 (colon cancer); assay: Human Disease Oriented in vitro Antitumor Screen; assay type: cell-based; conditions: HT-29 (Table 5), read-out: Gl50 (the source's name)
Method: as §4, §5, §6

[31] = system: SF-539; assay: Human Disease Oriented in vitro Antitumor Screen; assay type: cell-based; conditions: SF-539 (Table 5), read-out: Gl50 (the source's name)
Method: as §4, §5, §6

[32] = system: HL-60 (TB) (leukemia); assay: Human Disease Oriented in vitro Antitumor Screen; assay type: cell-based; conditions: HL-60 TB (Table 5), read-out: Gl50 (the source's name)
Method: as §4, §5, §6

[33] = system: OVCAR-8 (ovarian cancer); assay: Human Disease Oriented in vitro Antitumor Screen; assay type: cell-based; conditions: OVCAR-8 (Table 5), read-out: Gl50 (the source's name)
Method: as §4, §5, §6

[34] = system: adriamycin resistant MCF-7 human breast cancer cells (MCF-7/ADR-RBS); assay: Human Disease Oriented in vitro Antitumor Screen, adriamycin resistant cells; assay type: cell-based; conditions: MCF7, read-out: Gl50 (the source's name)
From the text: as §2, §3

[35] = system: Human HCT-8 Ileocecal Xenograft; assay: Antitumor activity by I.V. push, daily × 5, against human HCT-8 ileocecal xenograft
From the text: [M. G. Nair and Ann Abraham, U.S. Pat. No. 4,996,207 (1991); M. G. Nair, U.S. Pat. No. 5,073,554 (1991 )]. […] [Ann Abraham, M. G. Nair, et al. Advanced in Exp. Med. and Biol. 663-666 (1993)].
MIR: Maximum inhibitory rate. TD: Tumor doubling time.
CR: Complete Regression. PR Partial Regression.
(§7) MWL: Maximum Weight Loss.

[36] = system: Human HCT-8 Ileocecal Xenograft; assay: Antitumor activity by continuous i.v. infusion (C.I.) × 5d against human HCT-8 ileocecal xenograft; assay type: in vivo, human (xenograft in nude mice); conditions: for CR: Complete Regression / MIR: Maximum inhibitory rate / PR: Partial Regression / TD: Tumor doubling time: C.I. × 5d
From the text: (§8) Antitumor Activity of MDAM by C.I. × 5d
(§9) against HUMAN HCT-8 Ileocecal Xenograft
(§10) MIR: Maximum inhibitory rate.
(§11) TD: Tumor doubling time.
(§12) CR: Complete Regression.
(§13) PR: Partial Regression.
as §7

[37] = as above; assay type: in vivo, human (xenograft in nude mice); conditions: mouse, in vivo, iv; 0.25 mg/kg, C.I. × 5d; read-out: death
From the text: as §8, §9, §10, §11, §12, §13, §7

C=C(C[C@H](NC(=O)c1ccc(CCc2cnc3nc(N)nc(N)c3n2)cc1)C(=O)O)C(=O)O [L-MDAM, 4-amino-4-deoxy-10-deazapteroyl-γ-methylene-L-glutamic acid]
IC50 ([1]; 50 μM dihydrofolate, 80 μM NADPH, pH 7.4, 30°): 22 nM | IC50 Compound/IC50 MTX ([1]; ratio to MTX): 1.29 | DHFR inhibitory activity (comparison in words) ([1]; relative to MTX or D,L-MDAM): exactly twice as active as D,L-MDAM | cytotoxicity versus D,L-MDAM ([2]; H35 hepatoma cells): Dramatic and unexpected potentiation of activity | IC50 ([2]; H35 hepatoma cells in culture, identical conditions, read-out: l50 value for growth inhibition (Gl50)): 8 nM | IC50 ([3]; H35 hepatoma cells, read-out: l50 value, inhibition of transport of radiolabeled folinic acid): 2300 nM | reduction in l50 value (transport) versus D,L-MDAM ([3]; L-MDAM versus D,L-MDAM): approximately one-half | IC50 [4]: < 10 nM | IC50 [5]: < 10 nM | IC50 [6]: < 10 nM | IC50 [7]: < 10 nM | IC50 [8]: < 10 nM | IC50 [9]: < 10 nM | IC50 [10]: < 10 nM | IC50 [11]: < 10 nM | IC50 [12]: < 10 nM | IC50 [13]: < 10 nM | IC50 [14]: < 10 nM | IC50 [15]: < 10 nM | IC50 [16]: < 10 nM | IC50 [17]: < 10 nM | IC50 [18]: < 10 nM | activity/potency in inhibiting growth of human tumor cell lines (in words) [19]: biologically active enantiomer of D,L-MDAM | IC50 [20]: < 10 nM | IC50 [21]: < 10 nM | IC50 [22]: < 10 nM | IC50 [23]: < 10 nM | IC50 [24]: < 10 nM | IC50 [25]: < 10 nM | IC50 [26]: < 10 nM | IC50 [27]: < 10 nM | IC50 [28]: < 10 nM | IC50 [29]: < 10 nM | IC50 [30]: < 10 nM | IC50 [31]: < 10 nM | IC50 [32]: < 10 nM | IC50 [33]: < 10 nM | IC50 [34]: 74 nM

CN(Cc1cnc2nc(N)nc(N)c2n1)c1ccc(C(=O)N[C@@H](CCC(=O)O)C(=O)O)cc1 [MTX, methotrexate, reference compound]
CR: Complete Regression ([35]; 1 mg/kg, i.v. push daily × 5): 0% | MIR: Maximum inhibitory rate ([35]; 1 mg/kg, i.v. push daily × 5): 29.8 ± 8.6% | MWL: Maximum Weight Loss ([35]; 1 mg/kg, i.v. push daily × 5): 14.0 ± 3.0% | PR: Partial Regression ([35]; 1 mg/kg, i.v. push daily × 5): 0% | TD: Tumor doubling time ([35]; 1 mg/kg, i.v. push daily × 5): 4.6 ± 0.6 days | measurable antitumor activity ([35]; iv push, HCT-8 xenograft): did not exhibit any measurable antitumor activity | CR: Complete Regression ([36]; 0.1 mg/kg): 0% | MIR: Maximum inhibitory rate ([36]; 0.1 mg/kg): 50.6 ± 9.6% | PR: Partial Regression ([36]; 0.1 mg/kg): 0% | TD: Tumor doubling time ([36]; 0.1 mg/kg): 4.8 ± 0.4 days | CR: Complete Regression ([36]; 0.2 mg/kg): 0% | MIR: Maximum inhibitory rate ([36]; 0.2 mg/kg): 52.8 ± 8.5% | PR: Partial Regression ([36]; 0.2 mg/kg): 0% | TD: Tumor doubling time ([36]; 0.2 mg/kg): 5 ± 0.5 days | CR: Complete Regression ([36]; 0.25 mg/kg): 0% | PR: Partial Regression ([36]; 0.25 mg/kg): 0% | measurable antitumor activity ([36]; continuous 5 day iv infusion, HCT-8 xenograft): did not exhibit any measurable antitumor activity | mortality [37]: 100%
